Data set [1] has as its target D(1A) dopamine receptor (Homo sapiens) (UniProt P21728). Put plainly: Displacement of [3H]SCH-23390 from recombinant human Dopamine D1 receptor expressed in CHO cell membranes at 10 uM after 120 mins relative to control. (Loss of bound radioactivity is the signal in a displacement assay; it reports binding, not function.)
The nature of data set [2]: Displacement of [3H]Spiperone from recombinant human Dopamine D4.4 receptor expressed in CHO-K1 cell membranes after 120 mins.
Data set [3] has as its target D(2) dopamine receptor (Homo sapiens) (UniProt P14416). Put plainly: Displacement of [3H]Spiperone from recombinant human Dopamine D2L receptor expressed in CHO cell membranes at 10 uM after 120 mins relative to control.
Data set [4] has the same target. The data set can be described thus: Displacement of [3H]Spiperone from recombinant human Dopamine D2S receptor expressed in CHO cell membranes at 10 uM after 120 mins relative to control.
The target of data set [5] is D(3) dopamine receptor (Homo sapiens) (UniProt P35462). Put plainly: Displacement of [3H]Spiperone from recombinant human Dopamine D3 receptor expressed in CHO cell membranes at 10 uM after 120 mins relative to control.
D(3) dopamine receptor (Homo sapiens), sequence (P35462 whole entry): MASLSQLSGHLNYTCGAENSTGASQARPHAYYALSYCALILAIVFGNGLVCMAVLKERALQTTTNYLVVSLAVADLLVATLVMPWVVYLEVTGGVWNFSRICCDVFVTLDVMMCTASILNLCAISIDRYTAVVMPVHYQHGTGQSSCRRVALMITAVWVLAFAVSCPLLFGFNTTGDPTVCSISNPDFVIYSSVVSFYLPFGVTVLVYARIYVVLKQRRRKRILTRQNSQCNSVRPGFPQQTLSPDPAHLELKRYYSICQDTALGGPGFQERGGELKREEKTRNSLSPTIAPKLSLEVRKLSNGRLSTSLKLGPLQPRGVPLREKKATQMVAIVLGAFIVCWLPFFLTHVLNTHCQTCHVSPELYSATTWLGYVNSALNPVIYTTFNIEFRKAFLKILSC
In data set [6] the target is D(1B) dopamine receptor (Homo sapiens) (UniProt P21918). Put plainly: Displacement of [3H]SCH-23390 from recombinant human Dopamine D5 receptor expressed in CHO cell membranes at 10 uM after 120 mins relative to control.
D(1B) dopamine receptor (Homo sapiens), sequence (P21918 whole entry): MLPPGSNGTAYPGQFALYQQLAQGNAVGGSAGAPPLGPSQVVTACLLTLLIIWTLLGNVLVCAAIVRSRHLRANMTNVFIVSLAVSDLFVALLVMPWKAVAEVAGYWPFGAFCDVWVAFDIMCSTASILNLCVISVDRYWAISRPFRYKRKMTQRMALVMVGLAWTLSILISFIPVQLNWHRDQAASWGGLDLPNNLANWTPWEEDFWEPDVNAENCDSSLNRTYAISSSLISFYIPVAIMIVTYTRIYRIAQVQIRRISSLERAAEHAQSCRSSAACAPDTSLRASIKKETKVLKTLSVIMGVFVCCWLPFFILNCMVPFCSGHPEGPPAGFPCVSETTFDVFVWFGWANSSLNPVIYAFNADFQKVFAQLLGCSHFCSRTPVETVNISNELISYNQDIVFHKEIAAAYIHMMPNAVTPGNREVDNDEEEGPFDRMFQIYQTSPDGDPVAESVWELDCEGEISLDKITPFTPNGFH
In data set [7] the test system is CHO-K1. The data set can be described thus: Displacement of [3H] Spiperone from recombinant human Dopamine D4.4 receptor expressed in CHO-K1 cell membranes at 0.1 uM after 120 mins relative to control.
A short description of data set [8]: Intrinsic clearance in human liver microsomes by HPLC/MS analysis. It is filed as ADME. Conditions: read-out: CLH. (Microsomes from liver hold many membrane-bound enzymes, among them those of drug oxidation.)
The nature of data set [9]: Intrinsic clearance in rat liver microsomes by HPLC/MS analysis. It is filed as ADME. Conditions: read-out: CLH.
A short description of data set [10]: Unbound fraction in human plasma by HPLC/MS based equilibrium dialysis method. It is filed as ADME, cell-free.
A short description of data set [11]: Unbound fraction in rat plasma by HPLC/MS based equilibrium dialysis method. It is filed as ADME, cell-free. For orientation: In equilibrium dialysis only unbound substance equilibrates across the membrane.
Data set [12] is described as follows: Plasma concentration in rat at 0.25 mg/kg, iv administered through cassette dosing after 0.25 hrs by LC/MS/MS analysis. It is filed as ADME, organism-based.
Data set [13] is described as follows: Drug uptake in rat brain at 0.25 mg/kg, iv administered through cassette dosing after 0.25 hrs by LC/MS/MS analysis. The conditions noted are these: brain, read-out: Drug uptake. It is filed as ADME, organism-based.
Data set [14] in a line: Ratio of drug level in brain to plasma in rat at 0.25 mg/kg, iv administered through cassette dosing after 0.25 hrs by LC/MS/MS analysis. It is filed as ADME, organism-based.
Data set [15] concerns CHO-K1. Put plainly: Displacement of [3H] Spiperone from recombinant human Dopamine D4.4 receptor expressed in CHO-K1 cell membranes at 10 nM after 120 mins relative to control.

D(1A) dopamine receptor (Homo sapiens), sequence (P21728 whole entry): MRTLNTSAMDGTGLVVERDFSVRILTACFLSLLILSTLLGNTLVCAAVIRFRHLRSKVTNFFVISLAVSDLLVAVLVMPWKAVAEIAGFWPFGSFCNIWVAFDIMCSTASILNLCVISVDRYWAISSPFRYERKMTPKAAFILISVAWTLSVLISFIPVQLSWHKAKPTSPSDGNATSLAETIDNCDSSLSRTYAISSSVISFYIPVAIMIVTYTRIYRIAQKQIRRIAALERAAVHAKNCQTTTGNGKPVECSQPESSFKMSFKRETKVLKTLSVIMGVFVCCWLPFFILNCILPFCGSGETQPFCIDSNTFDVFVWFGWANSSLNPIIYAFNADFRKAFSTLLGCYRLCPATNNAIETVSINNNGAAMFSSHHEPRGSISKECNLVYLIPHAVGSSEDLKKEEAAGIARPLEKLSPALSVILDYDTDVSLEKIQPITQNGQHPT
D(2) dopamine receptor (Homo sapiens), sequence (P14416 whole entry): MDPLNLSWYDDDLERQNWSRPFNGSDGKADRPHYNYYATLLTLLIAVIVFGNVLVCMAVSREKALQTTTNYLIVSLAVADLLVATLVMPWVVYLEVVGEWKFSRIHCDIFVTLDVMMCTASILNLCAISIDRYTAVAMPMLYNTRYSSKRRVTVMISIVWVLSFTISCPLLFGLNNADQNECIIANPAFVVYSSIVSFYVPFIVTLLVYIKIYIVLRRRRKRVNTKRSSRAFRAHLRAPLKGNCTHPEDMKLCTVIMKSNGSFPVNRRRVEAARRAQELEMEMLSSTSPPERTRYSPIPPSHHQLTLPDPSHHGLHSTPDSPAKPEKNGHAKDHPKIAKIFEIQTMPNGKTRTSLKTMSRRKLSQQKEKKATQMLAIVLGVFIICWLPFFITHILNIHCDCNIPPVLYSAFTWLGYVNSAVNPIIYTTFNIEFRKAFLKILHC

As usually defined, the inhibition is the drop in the measured response relative to a control, in per cent. The term IC50 denotes the concentration needed to halve the response being measured. For orientation: Ki means a dissociation constant, usually derived from enzyme kinetics or from competition with a known ligand. By fraction unbound is commonly meant the share of the substance not bound to proteins or other matrix. A lower fraction unbound goes with extensive binding. The Kp is the ratio of the level in a tissue or fluid to that in plasma or blood. Regarding `Fc1ccc(CC[C@@H]2CN(Cc3c[nH]c4cc(Cl)ccc34)CCC2(F)F)cc1`, the inhibition in [1] is less than 50%; in [3] it was 51%; in data set [4], less than 50%; in [5], less than 50%; in data set [6], less than 50%; in the data set on CHO-K1 [7], 85%. For the same compound, the IC50 in [2] stood at 21 nM. Further, the inhibition constant (Ki) in data set [2] was 5.8 nM. Moreover, the CLint scaled in [8] came to 99 mL/min/kg; in data set [9], 582 mL/min/kg. The results for the fraction unbound in data set [10] and in data set [11] were 0.001 and 0.003, respectively. Further, the concentration at 0.25 h in [12] stood at 14.9 ng/mL; in data set [13] it was 19.6 ng/g. In data set [14], the Kp at 0.25 h stood at 1.3.

Turning to `COc1ccc2c(CN3CCC(F)(F)[C@H](CCc4ccc(F)cc4)C3)c[nH]c2c1`, the inhibition in data set [1] is less than 30%; in data set [3], 67%; in [4] it was less than 30%; in [5] it was 52%; in [6] it was less than 30%; with CHO-K1 [15] it was 63%. Moreover, the IC50 in data set [2] turned out to be 7 nM. Moreover, the inhibitory constant (Ki) in data set [2] stood at 1.9 nM. Moreover, the CLint scaled is 298 mL/min/kg in data set [8] and 957 mL/min/kg in data set [9]. For the same compound, the fraction unbound in [10] worked out at 0.018; in data set [11], 0.009. Moreover, the concentration at 0.25 h in data set [12] is 9.2 ng/mL; in data set [13], 30.3 ng/g. Also, the Kp at 0.25 h in data set [14] turned out to be 3.3.

Consider `Fc1ccc(CC[C@@H]2CN(Cc3c[nH]c4cc(F)ccc34)CCC2(F)F)cc1`, for which the inhibition in data set [1] was less than 50%; in [3], 53%; in data set [4] it was less than 50%; in data set [5], 85%; in data set [6], less than 50%; in the data set on CHO-K1 [15], 59%. Further, the half-maximal inhibitory concentration (IC50) in data set [2] turned out to be 7.4 nM. Also, in data set [2], the Ki was found to be 2.1 nM. Moreover, the values for the free fraction (fraction unbound) in data set [10] and in data set [11] were 0.004 and 0.011, respectively. Besides, the concentration at 0.25 h in data set [12] stood at 13.2 ng/mL; in data set [13], 25.5 ng/g. Also, in data set [14], the Kp at 0.25 h was determined as 1.9.

The values above are taken from ChEMBL document CHEMBL3868641, “Discovery, characterization and biological evaluation of a novel (R)-4,4-difluoropiperidine scaffold as dopamine receptor 4 (D4R) antagonists” (Bioorg Med Chem Lett, 2016).
